Source: patent US20250346593A1, “IMIDAZO(1,2-1)PYRIDINE DERIVATIVES AS RIPK2 INHIBITORS” (Interline Therapeutics, Inc., priority 2022, published 2025)
Read-outs that look alike come from different tables or passages of the source.

Key:
[1] = molecular target: GST-RIPK2 fusion protein (human RIPK2 amino acids 1-310) (Homo sapiens (Human), UniProt O43353); assay: RIPK2 binding competition assay (TR-FRET, Tracer 199)
[2] = test system: NF-κB pathway (SEAP) in THP1-Dual cells; assay: THP-1 Dual cell SEAP assay (L18-MDP stimulated); format: cell-based; settings: Homo sapiens, THP1-Dual, read-out: NFkB THP1 IC50
[3] = read-out: RIPK2 IC50, RIPK2 binding competition assay

Chain of GST-RIPK2 fusion protein (human RIPK2 amino acids 1-310) (O43353 1-310): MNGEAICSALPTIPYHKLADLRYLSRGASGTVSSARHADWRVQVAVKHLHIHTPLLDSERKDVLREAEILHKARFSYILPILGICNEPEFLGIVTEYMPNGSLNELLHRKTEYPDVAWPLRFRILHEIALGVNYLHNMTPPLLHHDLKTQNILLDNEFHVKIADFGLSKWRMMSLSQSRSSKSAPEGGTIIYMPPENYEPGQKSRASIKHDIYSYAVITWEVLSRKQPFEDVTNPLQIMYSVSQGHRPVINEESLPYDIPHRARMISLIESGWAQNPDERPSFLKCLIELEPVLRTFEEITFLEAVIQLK

SMILES | IC50 [1] [µM] | IC50 [2] [µM] | IC50 [1, 3] [µM]
COc1cc2ncc(-c3cc(F)nc(N[C@H](C)CO)c3)n2cc1S(=O)(=O)C(C)(C)C [Example 221, (2R)-2-({6-fluoro-4-[7-methoxy-6-(2-methylpropane-2-sulfonyl)imidazo[1,2-a]pyridin-3-yl]pyridin-2-yl}amino)propan-1-ol] | 0.001 to 0.0025 | < 0.05 | 
CCCS(=O)(=O)Nc1cc(-c2cnc3cc(OC)c(S(=O)(=O)C(C)(C)C)cn23)cnc1OC(F)F [Example 286, N-(5-(6-(tert-butylsulfonyl)-7-methoxyimidazo[1,2-a]pyridin-3-yl)-2-(difluoromethoxy)pyridin-3-yl)propane-1-sulfonamide] | 0.0025 to 0.02 | > 1 | 
CCCS(=O)(=O)Nc1cc(-c2cnc3cc(OC)c(S(=O)(=O)C4CC4)cn23)ccc1OC [Example 288, N-(5-(6-(cyclopropylsulfonyl)-7-methoxyimidazo[1,2-a]pyridin-3-yl)-2-methoxyphenyl)propane-1-sulfonamide] | 0.0025 to 0.02 | > 1 | 
COc1ccc(-c2cnn3ccc(S(=O)(=O)C(C)(C)C)cc23)cc1N [Example 25, 5-(5-(tert-butylsulfonyl)pyrazolo [1,5-a]pyridin-3-yl)-2-methoxyaniline] |  | > 1 | > 0.02
COc1cc2ncc(-c3cnc(N)c(C)n3)n2cc1S(=O)(=O)C(C)(C)C [Example 109, 5-(6-(tert-butylsulfonyl)-7-methoxyimidazo[1,2-a]pyridin-3-yl)-3-methylpyrazin-2-amine] |  | > 1 | > 0.02
COc1cc2ncc(-c3cc(F)c(N)nc3F)n2cc1S(=O)(=O)C(C)(C)C [Example 82, 5-(6-(tert-butylsulfonyl)-7-methoxyimidazo[1,2-a]pyridin-3-yl)-3,6-difluoropyridin-2-amine] | 0.0025 to 0.02 | 0.25 to 1 | 
COc1cc2ncc(-c3ccc(N)nc3Cl)n2cc1S(=O)(=O)C(C)(C)C [Example 99, 5-(6-(tert-butylsulfonyl)-7-methoxyimidazo[1,2-a]pyridin-3-yl)-6-chloropyridin-2-amine] |  | > 1 | > 0.02
COc1cc2ncc(-c3cc(F)nc(N4CCOCC4)c3)n2cc1S(=O)(=O)C(C)(C)C [Example 211, 4-(4-(6-(tert-butylsulfonyl)-7-methoxyimidazo[1,2-a]pyridin-3-yl)-6-fluoropyridin-2-yl)morpholine] | 0.0025 to 0.02 | 0.25 to 1 | 
COc1cc2ncc(-c3ccc(OC(F)F)c(N)c3)n2cc1S(=O)(=O)C(C)(C)C [Example 39, 5-(6-(tert-butylsulfonyl)-7-methoxyimidazo[1,2-a]pyridin-3-yl)-2-(difluoromethoxy)aniline] | 0.0025 to 0.02 | 0.05 to 0.25 | 
COc1cn2ncc(-c3cc(C#N)c(N)nc3F)c2cc1S(=O)(=O)C(C)(C)C [Example 110, 2-amino-5-(5-(tert-butylsulfonyl)-6-methoxypyrazolo[1,5-a]pyridin-3-yl)-6-fluoronicotinonitrile] | 0.0025 to 0.02 | > 1 | 
COc1cc2ncc(-c3cc(F)nc(NC[C@H]4CCNC(=O)C4)c3)n2cc1S(=O)(=O)C(C)(C)C (single isomer, unassigned) [Example 239, (4R or S)-4-[({6-fluoro-4-[7-methoxy-6-(2-methylpropane-2-sulfonyl)imidazo[1,2-a]pyridin-3-yl]pyridin-2-yl}amino)methyl]pi peridin-2-one] | < 0.001 | < 0.05 | 
CCCS(=O)(=O)Nc1cc(-c2cnc3cc(OCC)c(S(=O)(=O)C(C)C)cn23)ccc1OC [Example 133, N-{5-[7-ethoxy-6-(propane-2-sulfonyl)imidazo[1,2-a]pyridin-3-yl]-2-methoxyphenyl}propane-1-sulfonamide] | 0.0025 to 0.02 | 0.25 to 1 | 
CCCS(=O)(=O)Nc1nc(-c2cnc3cc(OC)c(S(=O)(=O)C(C)(C)C)cn23)ccc1OC(F)(F)F [Example 313, N-(6-(6-(tert-butylsulfonyl)-7-methoxyimidazo[1,2-a]pyridin-3-yl)-3-(trifluoromethoxy)pyridin-2-yl)propane-1-sulfonamide] |  | > 1 | > 0.02
COc1cc2ncc(-c3cc(N)c(OCCO)c(F)c3)n2cc1S(=O)(=O)C(C)(C)C [Example 64, 2-(2-amino-4-(6-(tert-butylsulfonyl)-7-methoxyimidazo[1,2-a]pyridin-3-yl)-6-fluorophenoxy)ethan-1-ol] | 0.0025 to 0.02 | 0.05 to 0.25 | 
COc1cc2ncc(-c3cc(F)nc(NCCN4CCCC4=O)c3)n2cc1S(=O)(=O)C(C)(C)C [Example 210, 1-(2-((4-(6-(tert-butylsulfonyl)-7-methoxyimidazo[1,2-a]pyridin-3-yl)-6-fluoropyridin-2-yl)amino)ethyl) pyrrolidin-2-one] | 0.001 to 0.0025 | 0.05 to 0.25 | 
COc1cc2ncc(-c3cc(C)c(N)nc3F)n2cc1S(=O)(=O)C(C)(C)C [Example 96, 5-(6-(tert-butylsulfonyl)-7-methoxyimidazo[1,2-a]pyridin-3-yl)-6-fluoro-3-methylpyridin-2-amine] | 0.0025 to 0.02 | 0.25 to 1 | 

SMILES | IC50 [1] [µM] | IC50 [2] [µM] | IC50 [1, 3] [µM]
CCCS(=O)(=O)Nc1cc(-c2cnc3cc(OC)c(S(=O)(=O)C(C)(C)C)cn23)cc(OC)c1OC [Example 10, N-(5-(6-(tert-butylsulfonyl)-7-methoxyimidazo[1,2-a]pyridin-3-yl)-2,3-dimethoxyphenyl) propane-1-sulfonamide] |  | < 0.05 | < 0.001
COc1cc(-c2cnc3cc(OC)c(S(=O)(=O)C(C)(C)C)cn23)cc(NS(C)(=O)=O)n1 [Example 264, N-(4-(6-(tert-butylsulfonyl)-7-methoxyimidazo[1,2-a]pyridin-3-yl)-6-methoxypyridin-2-yl)methanesulfonamide] | 0.0025 to 0.02 | 0.25 to 1 | 
COc1cc2ncc(-c3cnc(N)c(F)c3)n2cc1S(=O)(=O)C(C)(C)C [Example 73, 5-(6-(tert-butylsulfonyl)-7-methoxyimidazo[1,2-a]pyridin-3-yl)-3-fluoropyridin-2-amine] |  | > 1 | > 0.02
COc1cc2ncc(-c3ccc(F)c(N)c3)n2cc1S(=O)(=O)C(C)(C)C [Example 127, 5-(6-(tert-butylsulfonyl)-7-methoxyimidazo[1,2-a]pyridin-3-yl)-2-fluoroaniline] |  | > 1 | > 0.02
COc1cc2ncc(-c3cc(F)c(OC)c(C#N)c3)n2cc1S(=O)(=O)C(C)(C)C [Example 56, 5-(6-(tert-butylsulfonyl)-7-methoxyimidazo[1,2-a]pyridin-3-yl)-3-fluoro-2-methoxybenzonitrile] |  | > 1 | > 0.02
COc1cc2ncc(-c3cc(F)nc(N(C)C)c3)n2cc1S(=O)(=O)C(C)(C)C [Example 186, 4-(6-(tert-butylsulfonyl)-7-methoxyimidazo[1,2-a]pyridin-3-yl)-6-fluoro-N,N-dimethylpyridin-2-amine] |  | < 0.05 | < 0.001
COc1cc2ncc(-c3cc(Cl)nc(Cl)c3)n2cc1S(=O)(=O)C(C)(C)C [Example 8, 6-(tert-butylsulfonyl)-3-(2,6-dichloropyridin-4-yl)-7-methoxyimidazo[1,2-a]pyridine] |  | > 1 | > 0.02
CCCS(=O)(=O)Nc1c(F)c(-c2cnc3cc(OC)c(S(=O)(=O)C(C)(C)C)cn23)cc(F)c1OC [Example 263, N-(3-(6-(tert-butylsulfonyl)-7-methoxyimidazo[1,2-a]pyridin-3-yl)-2,5-difluoro-6-methoxyphenyl)propane-1-sulfonamide] | 0.0025 to 0.02 | 0.25 to 1 | 
COc1cc2ncc(-c3cc(N)c(OC)c(F)c3)n2cc1S(=O)(=O)C(C)(C)C [Example 2, 5-(6-(tert-butylsulfonyl)-7-methoxyimidazo[1,2-a]pyridin-3-yl)-3-fluoro-2-methoxyaniline] | 0.0025 to 0.02 | > 1 | 
COc1cn2ncc(-c3cc(OC)c(N)nc3F)c2cc1S(=O)(=O)C(C)(C)C [Example 104, 5-(5-(tert-butylsulfonyl)-6-methoxypyrazolo[1,5-a]pyridin-3-yl)-6-fluoro-3-methoxypyridin-2-amine] | 0.0025 to 0.02 | > 1 | 
CCCS(=O)(=O)N(C)c1cc(-c2cnc3cc(OC)c(S(=O)(=O)C(C)(C)C)cn23)cc(OC)c1C [Example 325, N-(5-(6-(tert-butylsulfonyl)-7-methoxyimidazo[1,2-a]pyridin-3-yl)-3-methoxy-2-methylphenyl)-N-methylpropane-1-sulfonamide] |  | > 1 | > 0.02
COc1cc2ncc(-c3cc(N)c(OC)c(OC)c3)n2cc1S(=O)(=O)C(C)(C)C [Example 47, 5-(6-(tert-butylsulfonyl)-7-methoxyimidazo[1,2-a]pyridin-3-yl)-2,3-dimethoxyaniline] | 0.0025 to 0.02 | > 1 | 
CCCS(=O)(=O)Nc1cc(-c2cnc3cc(OC)c(S(=O)(=O)C(C)(C)C)cn23)ccc1OC(F)F [Example 271, N-(5-(6-(tert-butylsulfonyl)-7-methoxyimidazo[1,2-a]pyridin-3-yl)-2-(difluoromethoxy)phenyl) propane-1-sulfonamide] | 0.001 to 0.0025 | < 0.05 | 
CC(C)(C)S(=O)(=O)c1ccn2ncc(-c3ccc(N)nc3)c2c1 [Example 26, 5-(5-(tert-butylsulfonyl)pyrazolo [1,5-a]pyridin-3-yl)pyridin-2-amine] |  | > 1 | > 0.02
COc1cc2ncc(-c3cc(F)c(OC)c(F)c3)n2cc1S(=O)(=O)C(C)(C)C [Example 57, 6-(tert-butylsulfonyl)-3-(3,5-difluoro-4-methoxyphenyl)-7-methoxyimidazo[1,2-a]pyridine] |  | > 1 | > 0.02
COc1cc2ncc(-c3cc(F)nc(NC[C@@H](C)O)c3)n2cc1S(=O)(=O)C(C)(C)C [Example 226, (2R)-1-({6-fluoro-4-[7-methoxy-6-(2-methylpropane-2-sulfonyl)imidazo[1,2-a]pyridin-3-yl]pyridin-2-yl}amino)propan-2-ol] | 0.001 to 0.0025 | < 0.05 | 
